Where two headings read alike, the source gives them in different places.

The test system of one assay is DLD1-WRN-KO cells. In words: Proliferation assay DLD1-WRN-KO (CellTiterGlo, off-target effects). Type of assay: cell-based. The conditions noted are these: 96 hours, geometric mean of at least 2. Summed up: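 DLD1 cells with CRISPR knockout of WRN were exposed overnight-seeded to eight 3-fold compound dilutions (0.1% DMSO) for 96 h at 37 °C. Viability was read as ATP by CellTiterGlo luminescence against a day-0 plate, giving GI50 and residual viability at top concentration.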

In assay [1] the target is T1, WRN helicase (aa N517-P1238) (Homo sapiens, UniProt Q14191).
T1 construct: The core helicase motif of the WRN protein (aa N517-P1238) was produced for this assay; His (N); ZZ (N); 3C protease cleavage site (N); made in house; host or cells: Sf21 insect cells (baculovirus; virus and BIICs made in SF9)
T1 sequence (Q14191 517-1238): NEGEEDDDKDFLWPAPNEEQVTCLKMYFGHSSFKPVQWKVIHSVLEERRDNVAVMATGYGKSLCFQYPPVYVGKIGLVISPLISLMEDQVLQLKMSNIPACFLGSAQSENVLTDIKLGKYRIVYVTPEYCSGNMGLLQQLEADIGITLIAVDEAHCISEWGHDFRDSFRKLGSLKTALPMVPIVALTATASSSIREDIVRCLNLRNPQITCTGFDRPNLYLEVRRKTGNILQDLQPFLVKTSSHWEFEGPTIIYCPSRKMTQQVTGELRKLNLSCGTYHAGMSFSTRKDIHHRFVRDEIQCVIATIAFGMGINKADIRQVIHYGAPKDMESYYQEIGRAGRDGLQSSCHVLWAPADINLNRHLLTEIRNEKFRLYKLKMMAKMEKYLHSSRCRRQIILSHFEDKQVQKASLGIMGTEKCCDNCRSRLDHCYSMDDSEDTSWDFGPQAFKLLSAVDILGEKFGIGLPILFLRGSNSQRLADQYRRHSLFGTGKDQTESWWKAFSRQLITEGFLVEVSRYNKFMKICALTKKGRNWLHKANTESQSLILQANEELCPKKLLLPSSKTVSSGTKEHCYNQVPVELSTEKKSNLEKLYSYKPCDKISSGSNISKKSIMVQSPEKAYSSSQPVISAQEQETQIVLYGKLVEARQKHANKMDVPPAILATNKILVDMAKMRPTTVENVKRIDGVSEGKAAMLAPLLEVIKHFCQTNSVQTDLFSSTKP
In words: WRN ATPase assay (DNA dependent ATP hydrolysis, ADP-Glo). The settings on record: 3 hours pre-incubation, 300 micromolar ATP, FLAP26 DNA; geometric mean of at least 2. It counts as biochemical. Summed up:
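DNA-dependent ATP hydrolysis detected as ADP by ADP-Glo luminescence, using 300 μM ATP, 0.2 nM FLAP26 substrate and 10 nM WRN aa N517-P1238 (Tris pH 7.5 buffer, 2 mM MgCl2, 50 mM NaCl). IC50s fitted from normalized duplicate half-log dilutions; reported as geometric means of at least 2 replicates.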

The test system of a further assay is SW48 cells. In words: Proliferation assay SW48 (CellTiterGlo). Type of assay: cell-based. The settings on record: SW48 colon carcinoma cells, 96 hours, CellTiterGlo, geometric mean of at least 2, read-out: Proliferation Assay SW48 GI50. From the text:
The colon carcinoma cell lines SW48 (RRID: CVCL_1724), HCT 116 (RRID: CVCL_0291) and SNU-407 (RRID: CVCL_5058) were obtained from ATCC. The WRN-knockdown insensitive colon carcinoma cell line DLD-1 (RRID: CVCL_0248) was obtained from the Korean Cell Line Bank (KCLB), and used to generate a derivative in which the endogenous WRN gene copies were knocked out by CRISPR-mediated editing using standard CRISPR methods. The resulting cell line, DLD1-WRN-KO, was used to assess potential off-target compound effects.
SW48, SNU-407 and DLD1-WRN-KO cells were cultured in growth medium composed of RPMI-1640 (Amimed Cat #1-41F22-1), 2 mM L-Glutamine (Amimed Cat #5-10K50), 10 mM HEPES (Gibco Cat #15630-056), 1 mM sodium pyruvate (Amimed Cat #5-60F00-H), 1× Penicillin-Streptomycin (Amimed Cat #4-01F00-H) and 10% fetal calf serum (Amimed Cat #2-01F30-G, Lot #LB11566P). HCT 116 cells were cultured in growth medium composed of McCoys 5A (Amimed catalog #1-18F01-1), 2 mM L-Glutamine (Amimed Cat #5-10K50), 1× Penicillin-Streptomycin (Amimed Cat #4-01F00-H) and 10% fetal calf serum (Amimed Cat #2-01F30-G, Lot #LB11566P). All cells were maintained at 37° C. in a humidified 5% CO2 incubator.
Following filtration through a Steriflip-NY 20 μm filter (Millipore Cat #SCNY00020), trypsinized cells were seeded in 100 microliters growth medium at 2,000 (SW48) or 1,500 (SNU-407, DLD1-WRN-KO, HCT 116) cells/well into white, clear-bottom 96-well plates (Costar Cat #3903). Three replicate plates were prepared for each compound treatment condition. In addition, one plate (termed “day 0”) was prepared to quantify the number of viable cells at the time of compound addition. Following overnight incubation at 37° C. in a humidified 5% CO2 atmosphere, eight 3-fold serial dilutions of a given compound stock (obtained at a concentration of 10 mM in DMSO and stored at 4° C.) were dispensed directly into each of the triplicate assay plates using a HP 300D non-contact Digital Dispenser (TECAN). The final concentration of DMSO was normalized to 0.1% in all wells. 96 hours after compound addition, cellular ATP levels as a surrogate for cell viability was assessed following addition of 50 microliters CellTiterGlo (Promega Cat #G7573) reagent and luminescence quantification on a MPLEX multi-mode plate-reader (TECAN) following a 10 minute incubation at room temperature. The number of viable cells in the “day 0” plate were quantified identically on the day of compound addition.
For data analysis, the assay background signal that was determined in wells containing medium, but no cells, was subtracted from all other data points prior to further calculations. The extent of growth inhibition and potential cell kill was assessed by comparing the ATP levels (measured using CellTiterGlo, Promega) in compound-treated cells with those present at the time of compound addition. To this end, the following conditional concept was programmatically applied in HELIOS, an in-house software applying a multi-step decision tree to arrive at optimal concentration response curve fits (Gubler et al, SLAS DOI: 10.1177/2472555217752140) to calculate % growth (% G) for each compound-treated well: % G=(T−V0)/V0))*100 when T<V0, and % G=(T−V0)/(V−V0)))*100 when T≥V0, where V0 is the viability level at time of compound addition, while V and T represent vehicle-control and compound-treated viability levels, respectively, at the end of the compound incubation. 100%, 0% and −100% signify absence of growth inhibition, growth stasis, and complete cell kill, respectively. Compound concentrations leading to half-maximal growth inhibition (GI50) and residual cell viability at the highest tested compound concentration (Data (cmax), expressed in percent) were routinely calculated. Data analysis can also be carried out using commercially available software designed to derive IC50 values using 4-parameter fits (e.g. GraphPad Prism, XL fit). […]

Consider `CC(=O)N1CCN(c2c(C)n(CC(=O)Nc3cc(Cl)c(C)cc3Cl)c3nc(C4=CCOCC4)nn3c2=O)CC1` [Example 100, 2-(6-(4-acetylpiperazin-1-yl)-2-(3,6-dihydro-2H-pyran-4-yl)-5-methyl-7-oxo-[1,2,4]triazolo[1,5-a]pyrimidin-4(7H)-yl)-N-(2,5-dichloro-4-methylphenyl)acetamide], for which the GI50 in the assay with DLD1-WRN-KO cells was above 10000 nM; in the assay on SW48 cells (Homo sapiens, SW48, 96 h), 4000 nM. This compound also showed a concentration for half-maximal inhibition (IC50) in assay [1] of 2000 nM.

`CC(=O)N1CCN(c2c(C3CC3)n(CC(=O)Nc3ccc(C(F)(F)F)cc3)c3nc(C4=CCOCC4)nn3c2=O)CC1` [Example 147, 2-(6-(4-acetylpiperazin-1-yl)-5-cyclopropyl-2-(3,6-dihydro-2H-pyran-4-yl)-7-oxo-[1,2,4]triazolo[1,5-a]pyrimidin-4(7H)-yl)-N-(4-(trifluoromethyl)phenyl)acetamide]: the GI50 in the assay on DLD1-WRN-KO cells was above 10000 nM; in the assay with SW48 cells (Homo sapiens, SW48, 96 h), 6000 nM. Further, in assay [1], it took 600 nM to reach half-maximal inhibition (IC50).

On to `CC(=O)N1CCN(c2c(C)n(CC(=O)Nc3ccc(C(F)(F)F)cc3F)c3nc(C4=CCOCC4)nn3c2=O)CC1` [Example 85, 2-(6-(4-acetylpiperazin-1-yl)-2-(3,6-dihydro-2H-pyran-4-yl)-5-methyl-7-oxo-[1,2,4]triazolo[1,5-a]pyrimidin-4(7H)-yl)-N-(2-fluoro-4-(trifluoromethyl)phenyl)acetamide], for which the GI50 is above 10000 nM in the assay on DLD1-WRN-KO cells and 4000 nM in the assay with SW48 cells (Homo sapiens, SW48, 96 h). The compound also gave an IC50 in assay [1] of 500 nM.

Take `CCc1c(N2CCN(C(=O)c3ccn4ccnc4c3O)CC2)c(=O)n2nc(C3=CCOCC3)nc2n1CC(=O)Nc1ccc(C(F)(F)F)cc1C` [Example 43, 2-(2-(3,6-dihydro-2H-pyran-4-yl)-5-ethyl-6-(4-(8-hydroxyimidazo[1,2-a]pyridine-7-carbonyl)piperazin-1-yl)-7-oxo-[1,2,4]triazolo[1,5-a]pyrimidin-4(7H)-yl)-N-(2-methyl-4-(trifluoromethyl)phenyl)acetamide]: the GI50 in the assay on DLD1-WRN-KO cells was above 10000 nM; in the assay with SW48 cells (Homo sapiens, SW48, 96 h) it was 1000 nM. The compound further came in with an IC50 in assay [1] of 80 nM.

Turning to `CC(=O)N1CCN(c2c(C)n(CC(=O)Nc3ccc(Cl)c(Cl)c3)c3nc(-c4ccc(CN(C)C(=O)OC5CC/C=C/CCC5)cc4)nn3c2=O)CC1` (stereo not drawn) [Example 102, (E)-cyclooct-4-en-1-yl (4-(6-(4-acetylpiperazin-1-yl)-4-(2-((3,4-dichlorophenyl)amino)-2-oxoethyl)-5-methyl-7-oxo-4,7-dihydro-[1,2,4]triazolo[1,5-a]pyrimidin-2-yl)benzyl)(methyl)carbamate], the GI50 came to 5000 nM in the assay with DLD1-WRN-KO cells and 7000 nM in the assay with SW48 cells (Homo sapiens, SW48, 96 h). In assay [1], this compound came in with a concentration for half-maximal inhibition (IC50) above 3000 nM.

As to `CCc1c(C2CCN(C(C)=O)CC2)c(=O)n2nc(C3=CCC(OC)CC3)nc2n1CC(=O)Nc1ccc(C(F)(F)F)cc1` (stereo not drawn) [Example 139, 2-(6-(1-acetylpiperidin-4-yl)-5-ethyl-2-(4-methoxycyclohex-1-en-1-yl)-7-oxo-[1,2,4]triazolo[1,5-a]pyrimidin-4(7H)-yl)-N-(4-(trifluoromethyl)phenyl)acetamide], the GI50 in the assay on DLD1-WRN-KO cells was above 10000 nM; in the assay with SW48 cells (Homo sapiens, SW48, 96 h), 1000 nM. The compound also gave an IC50 in assay [1] of 100 nM.

With `[2H]C([2H])(C(=O)Nc1ccc(C(F)(F)F)cc1)n1c(CC)c(N2CCN(C(C)=O)CC2)c(=O)n2nc(C3=CCOCC3)nc12` [Example 82, 2-(6-(4-acetylpiperazin-1-yl)-2-(3,6-dihydro-2H-pyran-4-yl)-5-ethyl-7-oxo-[1,2,4]triazolo[1,5-a]pyrimidin-4(7H)-yl)-N-(4-(trifluoromethyl)phenyl)acetamide-2,2-d2], the GI50 in the assay on DLD1-WRN-KO cells is above 10000 nM; with SW48 cells (Homo sapiens, SW48, 96 h), 2000 nM. In assay [1], this compound had an IC50 of 300 nM.

For `Cc1c(N2CCN(C(=O)c3c(O)cccc3O)CC2)c(=O)n2nc(C3=CCOCC3)nc2n1CC(=O)Nc1ccc(C(F)(F)F)cc1` [Example 15, 2-(2-(3,6-dihydro-2H-pyran-4-yl)-6-(4-(2,6-dihydroxybenzoyl)piperazin-1-yl)-5-methyl-7-oxo-[1,2,4]triazolo[1,5-a]pyrimidin-4(7H)-yl)-N-(4-(trifluoromethyl)phenyl)acetamide], the GI50 is above 10000 nM in the assay on DLD1-WRN-KO cells and 4000 nM in the assay on SW48 cells (Homo sapiens, SW48, 96 h). Besides, in assay [1], the IC50 stood at 50 nM.

As for `COC1CC=C(c2nc3n(CC(=O)Nc4ccc(C(F)(F)F)cc4)c(C)c(N4CCN(C(C)=O)CC4)c(=O)n3n2)CC1` (stereo not drawn) [Example 107, 2-(6-(4-acetylpiperazin-1-yl)-2-(4-methoxycyclohex-1-en-1-yl)-5-methyl-7-oxo-[1,2,4]triazolo[1,5-a]pyrimidin-4(7H)-yl)-N-(4-(trifluoromethyl)phenyl)acetamide], the GI50 in the assay with DLD1-WRN-KO cells was above 10000 nM; in the assay with SW48 cells (Homo sapiens, SW48, 96 h), 3000 nM. In assay [1], the 50% inhibitory concentration (IC50) amounted to 200 nM.

For `CC(=O)N1CCN(c2c(C)n(CC(=O)Nc3ccc(Cl)c4c3CCC4)c3nc(C4=CCOCC4)nn3c2=O)CC1` [Example 129, 2-(6-(4-acetylpiperazin-1-yl)-2-(3,6-dihydro-2H-pyran-4-yl)-5-methyl-7-oxo-[1,2,4]triazolo[1,5-a]pyrimidin-4(7H)-yl)-N-(7-chloro-2,3-dihydro-1H-inden-4-yl)acetamide], the GI50 is above 10000 nM in the assay on DLD1-WRN-KO cells and 5000 nM in the assay with SW48 cells (Homo sapiens, SW48, 96 h). Inhibition in assay [1] was half-maximal at 800 nM (IC50).

`CCc1c(C2=CCN(C(C)=O)CC2)c(=O)n2nc(C3=CCC(OC)CC3)nc2n1CC(=O)Nc1ccc(C(F)(F)F)cc1` (stereo not drawn) [Example 140, 2-(6-(1-acetyl-1,2,3,6-tetrahydropyridin-4-yl)-5-ethyl-2-(4-methoxycyclohex-1-en-1-yl)-7-oxo-[1,2,4]triazolo[1,5-a]pyrimidin-4(7H)-yl)-N-(4-(trifluoromethyl)phenyl)acetamide]: the GI50 was above 10000 nM in the assay with DLD1-WRN-KO cells and 4000 nM with SW48 cells (Homo sapiens, SW48, 96 h). In addition, in assay [1], the midpoint of inhibition, the IC50, lay at 100 nM.

Turning to `CCc1c(N2CCN(C(=O)C3CCOC3)CC2)c(=O)n2nc(C3=CCCCO3)nc2n1CC(=O)Nc1ccc(C(F)(F)F)cc1` (stereo not drawn) [Example 56, 2-(2-(3,4-dihydro-2H-pyran-6-yl)-5-ethyl-7-oxo-6-(4-(tetrahydrofuran-3-carbonyl)piperazin-1-yl)-[1,2,4]triazolo[1,5-a]pyrimidin-4(7H)-yl)-N-(4-(trifluoromethyl)phenyl)acetamide], the results for the GI50 in the assay with DLD1-WRN-KO cells and in the assay with SW48 cells were above 10000 nM and 1000 nM, respectively. Further, in assay [1], 100 nM corresponded to half-maximal inhibition (IC50).

These data come from US20260250289A1, “BICYCLIC HETEROCYCLES AND THEIR USE AS WRN INHIBITORS” (Novartis AG, priority 2022, published 2026).
